The test system of data set [1] is onset of asthma in young children with atopic dermatitis. The experiment in a line: 18 month double blind, placebo-controlled study of cetirizine dihydrochloride for preventing the onset of asthma. It counts as in vivo, infants. Conditions: for RR for developing asthma when cetirizine treated: versus placebo. From the text:
The aim of the study relative to the clinical effect of cetirizine dihydrochloride was to establish on the intention to treat (ITT population) whether an 18 month cetirizine dihydrochloride treatment can prevent the onset of asthma in young children with atopic dermatitis, when compared to placebo. Subgroups based on the baseline status of biological markers as well as specific asthmatic patients (i.e. wheezers only; asthma onset date at least 3 months after inclusion) were foreseen as well. It was considered that a 30% reduction of the incidence of asthma is clinically relevant. Secondary parameters of efficacy included the severity of asthma and atopic dermatitis.
All the infants had to have at least one parent or sibling with a history of atopic disease (atopic dermatitis, allergic rhinitis or asthma). Excluded were infants with asthma, or with a history of any episodes of wheezing or nocturnal cough as well as any condition likely to obscure the diagnosis of asthma (Guidelines for the diagnosis and management of asthma. National Asthma Education and Prevention Program. Expert Panel Report II. National Institute of Health publication 97-4051; International Report. International consensus report on diagnosis and treatment of asthma. National Heart, Lung and Blood Institute. National Institute of Health publication 92-3091).
The study was a prospective, randomized, double blind, parallel group, and placebo-controlled study with cetirizine dihydrochloride.
Study treatment lasted for 18 months. After the treatment period, patients entered a long-term follow-up period.
The primary end-point for efficacy was the onset of asthma, defined as 3 episodes of nocturnal cough with sleep disturbances or wheezing, separated by at least 7 days, in a clinical setting where asthma is likely and conditions other than allergy have been excluded.
Serum total and specific (grass pollen, cow's milk, egg, house dust mites and cat dander) IgE antibody levels were determined using the Pharmacia CAP® system (Pharmacia & Upjohn, Uppsala, Sweden). These analyses were made at baseline, and after 3, 12 and 18 months of treatment by a central laboratory (Institut Pasteur—Lille, France) according to instructions of the manufacturer and routine clinical laboratory performances.
(§1) Oral solutions of cetirizine dihydrochloride (10 mg/ml) and matching placebo, similar in appearance and taste were used. The recommended study dosage was 0.25 mg cetirizine/kg b.i.d. (b.i.d.=“bis in die”, 2 times a day).
Sample size was based on an expected cumulative incidence of asthma in 40% of children in the placebo group after 18 months of treatment. A decrease of 30% of the incidence was considered as clinically relevant.

In data set [2] the test system is infants with atopic dermatitis. The experiment in a line: Adverse events recorded during the 18 month study. It counts as in vivo. How it is done:
At each of the nine visits, the atopy status, any concurrent illnesses, concomitant medications and procedures were recorded. Patients underwent a physical examination, including the measurement of vital signs.
Adverse events were recorded by the parents on diary cards and discussed with the investigator at each visit. Serious adverse events had to be reported immediately.
as §1

Where [3] appears, read: subgroup with elevated Eosinophil count at baseline.

Structures are written as SMILES.

On to `O=C(O)COCCN1CCN(C(c2ccccc2)c2ccc(Cl)cc2)CC1` (centres unmarked) [Cetirizine], for which the “Occurrence of Asthma by Treatment” value is recorded as “(37.7) %” in data set [1] (ITT population, 18 months, 0.25 mg/kg b.i.d. oral); “(42.7) %” in data set [1] (setting [3]); “(40.6) %” in data set [1] (subgroup with elevated IgE Cat dander (E1) at baseline (≧0.35 kUA/l)); “(31.2) %” in data set [1] (subgroup with elevated IgE Egg (F1) at baseline (≧0.35 kUA/l)); “(27.8) %” in data set [1] (subgroup with elevated IgE Grass pollen (GX1) at baseline (≧0.35 kUA/l)); “(28.6) %” in data set [1] (subgroup with elevated IgE HDM (D1) at baseline (≧0.35 kUA/l)). Also, the “Occurrence of Asthma by Treatment” value in data set [1] (subgroup with elevated IgE HDM + Grass pollen at baseline (≧0.35 kUA/l)) is “(34.2) %”; in data set [1] (subgroup with elevated IgE Milk (F2) at baseline (≧0.35 kUA/l)) it was “(30.7) %”; in data set [1] (subgroup with elevated Total IgE (PRIST) at baseline (≧30 kU/l)), “(38.1) %”. Moreover, the “number of children developing asthma” value in data set [1] (early treatment initiated between 1 and 2 years of age, atopic dermatitis, sensitized (specific IgE ≧0.35 kUA/l) to grass pollen or house dust mite) is “halved”. Besides, the prevention of asthma result in data set [1] (infants with atopic dermatitis and evidence of sensitivity to grass pollen or house dust mite) was “successfully prevents asthma”. Moreover, the “risk of developing asthma compared with placebo” value in data set [1] (infants with raised baseline total IgE (≧30 kU/l) or specific IgE antibodies (≧0.35 kUA/l)) is “reduced risk of developing asthma”. The “RR for developing asthma when cetirizine treated” value in data set [1] (setting [3]) turned out to be 0.9; in data set [1] (subgroup with elevated IgE Cat dander (E1) at baseline), 0.9; in data set [1] (subgroup with elevated IgE Egg (F1) at baseline), 0.8; in data set [1] (subgroup with elevated IgE Grass pollen (GX1) at baseline), 0.5; in data set [1] (subgroup with elevated IgE HDM (D1) at baseline), 0.6; in data set [1] (subgroup with elevated IgE HDM + Grass pollen at baseline), 0.6. Besides, the “RR for developing asthma when cetirizine treated” value in data set [1] (subgroup with elevated IgE Milk (F2) at baseline) is reported as 0.7; in data set [1] (subgroup with elevated Total IgE (PRIST) at baseline) it was 0.9. The safety in infants result in data set [2] (18 month treatment, large trial in infants) is on record as “safe product”. Besides, the “urticaria (adverse event frequency)” value in data set [2] (cetirizine group versus 16.1% placebo, p<0.001) came out at 5.8%. In addition, the “adverse event (AE) profiles between groups” value in data set [2] (cetirizine versus placebo, except for urticaria) was “no significant differences”.

(Values after patent US6432961B1, “Method for preventing the onset of asthma” (UCB S.A., priority 1998, dated 2002).)
